In patent publication US7473790B2 (Pfizer Inc., priority 2003, dated 2009):

target: T1, HCV polymerase (Hepatitis C virus genotype 1b, UniProt P26663); test: HCV polymerase primer/template-directed transcription assay (32P-GTP incorporation, filter binding); assay type: biochemical; details: recombinant HCV polymerase; 30 minutes at 30° C.; concentration giving 50% inhibition of polymerase-directed transcription; read-out: IC50
T1 construct: 2.5 pmoles (0.15 μg) HCV polymerase protein in a final volume of 75 μL
Procedure, shortened: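 Recombinant genotype 1b polymerase (30 nM) extended biotin-dG12 primer on poly(rC)300 template with 1 μM GTP plus α-32P-GTP, pH 7.2, 10 mM MgCl2, 30 min at 30° C, 1% DMSO final. Products captured on DE filters and counted. IC50 fitted from triplicate cpm, with a tight-binding correction applied below 200 nM.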

T1 sequence (P26663 2420-3010): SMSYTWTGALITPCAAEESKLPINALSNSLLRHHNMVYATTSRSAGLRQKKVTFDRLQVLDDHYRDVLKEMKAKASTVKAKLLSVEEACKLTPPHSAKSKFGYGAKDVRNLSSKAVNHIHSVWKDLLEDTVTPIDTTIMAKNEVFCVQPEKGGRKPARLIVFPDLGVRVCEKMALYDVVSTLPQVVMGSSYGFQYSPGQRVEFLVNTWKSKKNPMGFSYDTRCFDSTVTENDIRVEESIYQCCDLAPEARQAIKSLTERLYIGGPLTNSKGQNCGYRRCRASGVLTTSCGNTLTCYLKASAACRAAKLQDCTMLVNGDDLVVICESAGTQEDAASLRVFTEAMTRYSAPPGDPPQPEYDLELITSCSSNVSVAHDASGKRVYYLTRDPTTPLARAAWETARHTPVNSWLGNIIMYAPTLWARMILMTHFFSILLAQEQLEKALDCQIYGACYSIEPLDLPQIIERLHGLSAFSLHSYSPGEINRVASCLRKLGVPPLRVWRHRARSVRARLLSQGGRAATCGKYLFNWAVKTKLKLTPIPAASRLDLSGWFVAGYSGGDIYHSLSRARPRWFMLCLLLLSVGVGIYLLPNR

| Structure (SMILES) | IC50 [nM] |
| --- | --- |
| CCc1ccc(O)c(CCC2(C3CCCC3)CC(O)=C(Cc3nc4ncc(Cl)cn4n3)C(=O)O2)c1 (centres unmarked) [A(170), 3-(6-Chloro-[1,2,4]triazolo[1,5-a]pyrimidin-2-ylmethyl)-6-cyclopentyl-6-[2-(5-ethyl-2-hydroxy-phenyl)-ethyl]-4-hydroxy-5,6-dihydro-pyran-2-one] | 10 |
| CCc1ccc(O)c(CCC2(C3CCCC3)CC(O)=C(Cc3nc4ncc(C)cn4n3)C(=O)O2)c1 (centres unmarked) [A(173), 6-Cyclopentyl-6-[2-(5-ethyl-2-hydroxy-phenyl)-ethyl]-4-hydroxy-3-(6-methyl-[1,2,4]triazolo[1,5-a]pyrimidin-2-ylmethyl)-5,6-dihydro-pyran-2-one] | 4 |
| CCc1ccc(O)c(CCC2(C3CCCC3)CC(O)=C(Cc3nc4ncccn4n3)C(=O)O2)c1 (centres unmarked) [A(176), 6-Cyclopentyl-6-[2-(5-ethyl-2-hydroxy-phenyl)-ethyl]-4-hydroxy-3-[1,2,4]triazolo[1,5-a]pyrimidin-2-ylmethyl-5,6-dihydro-pyran-2-one] | 6 |
| CCc1ccc(OCCOC)c(CCC2(C3CCCC3)CC(O)=C(Cc3nc4nc(C)cc(C)n4n3)C(=O)O2)c1 (centres unmarked) [A(177), 6-Cyclopentyl-3-(5,7-dimethyl-[1,2,4]triazolo[1,5-a]pyrimidin-2-ylmethyl)-6-{2-[5-ethyl-2-(2-methoxy-ethoxy)-phenyl]-ethyl}-4-hydroxy-5,6-dihydro-pyran-2-one] | 14 |
| CCc1ccc(OCCOC)c(CCC2(C3CCCC3)CC(=O)CC(=O)O2)c1 (centres unmarked) [A(178), 6-Cyclopentyl-6-{2-[5-ethyl-2-(2-methoxy-ethoxy)-phenyl]-ethyl}-dihydro-pyran-2,4-dione] | 1300 |
| CCc1ccc(OCCOC)c(CCC2(C3CCCC3)CC(O)=C(Cc3nc4ncc(C)cn4n3)C(=O)O2)c1 (centres unmarked) [A(179), 6-Cyclopentyl-6-{2-[5-ethyl-2-(2-methoxy-ethoxy)-phenyl]-ethyl}-4-hydroxy-3-(6-methyl-[1,2,4]triazolo[1,5-a]pyrimidin-2-ylmethyl)-5,6-dihydro-pyran-2-one] | 5 |
| CCc1cc(CCC2(C3CCCC3)CC(O)=C(Cc3nc4nc(C)cc(C)n4n3)C(=O)O2)c2c(c1O)CCO2 (centres unmarked) [A(180), 6-Cyclopentyl-3-(5,7-dimethyl-[1,2,4]triazolo[1,5-a]pyrimidin-2-ylmethyl)-6-[2-(5-ethyl-4-hydroxy-2,3-dihydro-benzofuran-7-yl)-ethyl]-4-hydroxy-5,6-dihydro-pyran-2-one] | 10 |
| CCc1cc(CCC2(C3CCCC3)CC(=O)CC(=O)O2)c2c(c1O)CCO2 (centres unmarked) [A(181), 6-Cyclopentyl-6-[2-(5-ethyl-4-hydroxy-2,3-dihydro-benzofuran-7-yl)-ethyl]-dihydro-pyran-2,4-dione] | 600 |
| CCc1cc(CCC2(C3CCCC3)CC(O)=C(Cc3nc4ncc(C)cn4n3)C(=O)O2)c2c(c1O)CCO2 (centres unmarked) [A(182), 6-Cyclopentyl-6-[2-(5-ethyl-4-hydroxy-2,3-dihydro-benzofuran-7-yl)-ethyl]-4-hydroxy-3-(6-methyl-[1,2,4]triazolo[1,5-a]pyrimidin-2-ylmethyl)-5,6-dihydro-pyran-2-one] | 4 |
| CCc1cc(CCC2(C3CCCC3)CC(O)=C(Cc3nc4nc(C)cc(C)n4n3)C(=O)O2)ccc1OCCOC (centres unmarked) [A(183), 6-Cyclopentyl-3-(5,7-dimethyl-[1,2,4]triazolo[1,5-a]pyrimidin-2-ylmethyl)-6-{2-[3-ethyl-4-(2-methoxy-ethoxy)-phenyl]-ethyl}-4-hydroxy-5,6-dihydro-pyran-2-one] | 7 |
| CCc1cc(CCC2(C3CCCC3)CC(=O)CC(=O)O2)ccc1OCCOC (centres unmarked) [A(184), 6-Cyclopentyl-6-{2-[3-ethyl-4-(2-methoxy-ethoxy)-phenyl]-ethyl}-dihydro-pyran-2,4-dione] | 520 |
| CCc1cc(CCC2(C3CCCC3)CC(O)=C(Cc3nc4ncc(C)cn4n3)C(=O)O2)ccc1OCCOC (centres unmarked) [A(185), 6-Cyclopentyl-6-{2-[3-ethyl-4-(2-methoxy-ethoxy)-phenyl]-ethyl}-4-hydroxy-3-(6-methyl-[1,2,4]triazolo[1,5-a]pyrimidin-2-ylmethyl)-5,6-dihydro-pyran-2-one] | 8 |
| CCc1cc(O)cc(CCC2(C3CCCC3)CC(O)=C(Cc3nc4nc(C)cc(C)n4n3)C(=O)O2)c1 (centres unmarked) [A(186), 6-Cyclopentyl-3-(5,7-dimethyl-[1,2,4]triazolo[1,5-a]pyrimidin-2-ylmethyl)-6-[2-(3-ethyl-5-hydroxy-phenyl)-ethyl]-4-hydroxy-5,6-dihydro-pyran-2-one] | 40 |
| CCc1cc(CCC2(C3CCCC3)CC(O)=C(Cc3nc4nc(C)cc(C)n4n3)C(=O)O2)c(O)cc1OC (centres unmarked) [A(187), 6-Cyclopentyl-3-(5,7-dimethyl-[1,2,4]triazolo[1,5-a]pyrimidin-2-ylmethyl)-6-[2-(5-ethyl-2-hydroxy-4-methoxy-phenyl)-ethyl]-4-hydroxy-5,6-dihydro-pyran-2-one] | 4 |
| Cc1cc(C)n2nc(CC3=C(O)CC(CCc4ccc(C5(C#N)CCCC5)c(F)c4)(C4CCCC4)OC3=O)nc2n1 (centres unmarked) [A(188), 1-(4-{2-[2-Cyclopentyl-5-(5,7-dimethyl-[1,2,4]triazolo[1,5-a]pyrimidin-2-ylmethyl)-4-hydroxy-6-oxo-3,6-dihydro-2H-pyran-2-yl]-ethyl}-2-fluoro-phenyl)-cyclopentanecarbonitrile] | 6 |
| N#CC1(c2ccc(CCC3(C4CCCC4)CC(=O)CC(=O)O3)cc2F)CCCC1 (centres unmarked) [A(189), 1-{4-[2-(2-Cyclopentyl-4,6-dioxo-tetrahydro-pyran-2-yl)-ethyl]-2-fluoro-phenyl}-cyclopentanecarbonitrile] | 2900 |
| Cc1cnc2nc(CC3=C(O)CC(CCc4ccc(C5(C#N)CCCC5)c(F)c4)(C4CCCC4)OC3=O)nn2c1 (centres unmarked) [A(190), 1-(4-{2-[2-Cyclopentyl-4-hydroxy-5-(6-methyl-[1,2,4]triazolo[1,5-a]pyrimidin-2-ylmethyl)-6-oxo-3,6-dihydro-2H-pyran-2-yl]-ethyl}-2-fluoro-phenyl)-cyclopentanecarbonitrile] | 11 |
| N#CC1(c2ccc(CCC3(C4CCCC4)CC(O)=C(Cc4nc5ncc(Cl)cn5n4)C(=O)O3)cc2F)CCCC1 (centres unmarked) [A(191), 1-(4-{2-[5-(6-Chloro-[1,2,4]triazolo[1,5-a]pyrimidin-2-ylmethyl)-2-cyclopentyl-4-hydroxy-6-oxo-3,6-dihydro-2H-pyran-2-yl]-ethyl}-2-fluoro-phenyl)-cyclopentanecarbonitrile] | 17 |
| COCc1cc(CCC2(C3CCCC3)CC(O)=C(Cc3nc4nc(C)cc(C)n4n3)C(=O)O2)ccc1O (centres unmarked) [A(192), 6-Cyclopentyl-3-(5,7-dimethyl-[1,2,4]triazolo[1,5-a]pyrimidin-2-ylmethyl)-4-hydroxy-6-[2-(4-hydroxy-3-methoxymethyl-phenyl)-ethyl]-5,6-dihydro-pyran-2-one] | 28 |
| Cc1cc(C)n2nc(CC3=C(O)CC(CCc4ccc(O)c(CO)c4)(C4CCCC4)OC3=O)nc2n1 (centres unmarked) [A(193), 6-Cyclopentyl-3-(5,7-dimethyl-[1,2,4]triazolo[1,5-a]pyrimidin-2-ylmethyl)-4-hydroxy-6-[2-(4-hydroxy-3-hydroxymethyl-phenyl)-ethyl]-5,6-dihydro-pyran-2-one] | 98 |
| COCc1cc(CCC2(C3CCCC3)CC(=O)CC(=O)O2)ccc1O (centres unmarked) [A(194), 6-Cyclopentyl-6-[2-(4-hydroxy-3-methoxymethyl-phenyl)-ethyl]-dihydro-pyran-2,4-dione] | 6900 |
| O=C1CC(=O)OC(CCc2ccc(O)c(CO)c2)(C2CCCC2)C1 (centres unmarked) [A(195), 6-Cyclopentyl-6-[2-(4-hydroxy-3-hydroxymethyl-phenyl)-ethyl]-dihydro-pyran-2,4-dione] | 11000 |
| CC(C)(C#N)c1ccc(CCC2(C3CCCC3)CC(O)=C(Cc3nc4ncc(Cl)cn4n3)C(=O)O2)cc1Cl (centres unmarked) [A(198), 2-(2-Chloro-4-{2-[5-(6-chloro-[1,2,4]triazolo[1,5-a]pyrimidin-2-ylmethyl)-2-cyclopentyl-4-hydroxy-6-oxo-3,6-dihydro-2H-pyran-2-yl]-ethyl}-phenyl)-2-methyl-propionitrile] | 16 |
| Cc1cnc2nc(CC3=C(O)CC(CCc4ccc(C(C)(C)C#N)c(Cl)c4)(C4CCCC4)OC3=O)nn2c1 (centres unmarked) [A(199), 2-(2-Chloro-4-{2-[2-cyclopentyl-4-hydroxy-5-(6-methyl-[1,2,4]triazolo[1,5-a]pyrimidin-2-ylmethyl)-6-oxo-3,6-dihydro-2H-pyran-2-yl]-ethyl}-phenyl)-2-methyl-propionitrile] | 10 |
| CCc1cc(CCC2(C3CCCC3)CC(O)=C(Cc3nc4ncccn4n3)C(=O)O2)c(OC)cc1O (centres unmarked) [A(207), 6-cyclopentyl-6-[2-(5-ethyl-4-hydroxy-2-methoxyphenyl)ethyl]-4-hydroxy-3-([1,2,4]triazolo[1,5-a]pyrimidin-2-ylmethyl)-5,6-dihydro-2H-pyran-2-one] | 4 |
| CC(C)(O)c1ccc(CCC2(C3CCCC3)CC(O)=C(Cc3nc4ncc(Cl)cn4n3)C(=O)O2)cc1F (centres unmarked) [A(214), 3-[(6-chloro[1,2,4]triazolo[1,5-a]pyrimidin-2-yl)methyl]-6-cyclopentyl-6-{2-[3-fluoro-4-(1-hydroxy-1-methylethyl)phenyl]ethyl}-4-hydroxy-5,6-dihydro-2H-pyran-2-one] | 38 |
| CC(C)(O)c1ccc(CCC2(C3CCCC3)CC(=O)CC(=O)O2)cc1F (centres unmarked) [A(215), 6-cyclopentyl-6-{2-[3-fluoro-4-(1-hydroxy-1-methylethyl)phenyl]ethyl}dihydro-2H-pyran-2,4(3H)-dione] | 4900 |
| Cc1cnc2nc(CC3=C(O)CC(CCc4ccc(C(C)(C)O)c(F)c4)(C4CCCC4)OC3=O)nn2c1 (centres unmarked) [A(216)] | 45 |
| Cc1cc(C)n2nc(CC3=C(O)CC(CCc4ccc(C(C)(C)O)c(F)c4)(C4CCCC4)OC3=O)nc2n1 (centres unmarked) [A(217), 6-cyclopentyl-3-[(5,7-dimethyl[1,2,4]triazolo[1,5-a]pyrimidin-2-yl)methyl]-6-{2-[3-fluoro-4-(1-hydroxy-1-methylethyl)phenyl]ethyl}-4-hydroxy-5,6-dihydro-2H-pyran-2-one] | 14 |
